Data: the supplement of paper PMC10307832

What was measured:
Assay in all cases: relative viability (nuclei count vs DMSO), 5 days (fraction); higher = more cells survive
Wnt-C59 + OSI-027 = compound: CC1=NC=CC(=C1)C2=CC=C(C=C2)CC(=O)NC3=CC=C(C=C3)C4=CN=CC=C4 [Wnt-C59] + COc1cccc2cc(-c3nc([C@H]4CC[C@H](C(=O)O)CC4)n4ncnc(N)c34)[nH]c12 [OSI-027] (partner 0.5 µM)
How it was run: (§1)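 Nuclei were stained with Hoechst during a one-step fixation (final 0.05% Triton X-100, 1% formaldehyde, 1 ug/ml Hoechst) carried out 5 days after dosing, then counted on 4× images. The cells, lung cancer lines in 1536-well plates, had been dosed by pin tool the day after seeding with one drug alone or a fixed anchor-drug dose plus five library-drug doses (not always all listed) in √10 steps. Relative viability is the nuclei count in treated wells divided by that in vehicle wells, and each value is the median of duplicate plates.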

Wnt-C59 + Linsitinib = compound: CC1=NC=CC(=C1)C2=CC=C(C=C2)CC(=O)NC3=CC=C(C=C3)C4=CN=CC=C4 [Wnt-C59] + C[C@]1(O)C[C@@H](c2nc(-c3ccc4ccc(-c5ccccc5)nc4c3)c3c(N)nccn32)C1 [Linsitinib] (partner 1 µM)
How it was run: as §1

Lapatinib + Palbociclib = compound: CS(=O)(=O)CCNCc1ccc(-c2ccc3ncnc(Nc4ccc(OCc5cccc(F)c5)c(Cl)c4)c3c2)o1 [Lapatinib] + CC(=O)c1c(C)c2cnc(Nc3ccc(N4CCNCC4)cn3)nc2n(C2CCCC2)c1=O [Palbociclib] (partner 0.5 µM)
How it was run: as §1

Lapatinib + Linsitinib = compound: CS(=O)(=O)CCNCc1ccc(-c2ccc3ncnc(Nc4ccc(OCc5cccc(F)c5)c(Cl)c4)c3c2)o1 [Lapatinib] + C[C@]1(O)C[C@@H](c2nc(-c3ccc4ccc(-c5ccccc5)nc4c3)c3c(N)nccn32)C1 [Linsitinib] (partner 1 µM)
How it was run: as §1

## NCI-H838
Wnt-C59 + OSI-027; first compound 0.001 µM
  relative viability: 0.435
Wnt-C59 + OSI-027; first compound 0.01 µM
  relative viability: 0.385
Wnt-C59 + OSI-027; first compound 0.03162 µM
  relative viability: 0.331
Wnt-C59 + OSI-027; first compound 0.1 µM
  relative viability: 0.411
Wnt-C59 + Linsitinib; first compound 0.001 µM
  relative viability: 1.07
Wnt-C59 + Linsitinib; first compound 0.01 µM
  relative viability: 0.997
Wnt-C59 + Linsitinib; first compound 0.03162 µM
  relative viability: 1.01
Wnt-C59 + Linsitinib; first compound 0.1 µM
  relative viability: 1.04
Lapatinib + Palbociclib; first compound 0.02 µM
  relative viability: 0.225
Lapatinib + Palbociclib; first compound 0.06325 µM
  relative viability: 0.193
Lapatinib + Palbociclib; first compound 0.2 µM
  relative viability: 0.201
Lapatinib + Palbociclib; first compound 0.6325 µM
  relative viability: 0.238
Lapatinib + Palbociclib; first compound 2 µM
  relative viability: 0.178
Lapatinib + Linsitinib; first compound 0.02 µM
  relative viability: 1.08
Lapatinib + Linsitinib; first compound 0.06325 µM
  relative viability: 0.913
Lapatinib + Linsitinib; first compound 0.2 µM
  relative viability: 1.03
Lapatinib + Linsitinib; first compound 0.6325 µM
  relative viability: 1.04
Lapatinib + Linsitinib; first compound 2 µM
  relative viability: 0.874

## NCI-H1355
Wnt-C59 + OSI-027; first compound 0.001 µM
  relative viability: 0.446
Wnt-C59 + OSI-027; first compound 0.01 µM
  relative viability: 0.302
Wnt-C59 + OSI-027; first compound 0.03162 µM
  relative viability: 0.366
Wnt-C59 + OSI-027; first compound 0.1 µM
  relative viability: 0.417
Wnt-C59 + Linsitinib; first compound 0.001 µM
  relative viability: 0.875
Wnt-C59 + Linsitinib; first compound 0.01 µM
  relative viability: 0.779
Wnt-C59 + Linsitinib; first compound 0.03162 µM
  relative viability: 0.881
Wnt-C59 + Linsitinib; first compound 0.1 µM
  relative viability: 0.673
Lapatinib + Palbociclib; first compound 0.02 µM
  relative viability: 0.411
Lapatinib + Palbociclib; first compound 0.06325 µM
  relative viability: 0.29
Lapatinib + Palbociclib; first compound 0.2 µM
  relative viability: 0.402
Lapatinib + Palbociclib; first compound 0.6325 µM
  relative viability: 0.361
Lapatinib + Palbociclib; first compound 2 µM
  relative viability: 0.268
Lapatinib + Linsitinib; first compound 0.06325 µM
  relative viability: 0.745
Lapatinib + Linsitinib; first compound 0.2 µM
  relative viability: 0.782
Lapatinib + Linsitinib; first compound 0.6325 µM
  relative viability: 0.792
Lapatinib + Linsitinib; first compound 2 µM
  relative viability: 0.526

## NCI-H1395
Wnt-C59 + OSI-027; first compound 0.001 µM
  relative viability: 0.61
Wnt-C59 + OSI-027; first compound 0.01 µM
  relative viability: 0.661
Wnt-C59 + OSI-027; first compound 0.03162 µM
  relative viability: 0.717
Wnt-C59 + OSI-027; first compound 0.1 µM
  relative viability: 0.727
Wnt-C59 + Linsitinib; first compound 0.001 µM
  relative viability: 0.972
Wnt-C59 + Linsitinib; first compound 0.01 µM
  relative viability: 1.06
Wnt-C59 + Linsitinib; first compound 0.03162 µM
  relative viability: 1.09
Wnt-C59 + Linsitinib; first compound 0.1 µM
  relative viability: 1.03
Lapatinib + Palbociclib; first compound 0.06325 µM
  relative viability: 0.621
Lapatinib + Palbociclib; first compound 0.2 µM
  relative viability: 0.581
Lapatinib + Palbociclib; first compound 0.6325 µM
  relative viability: 0.598
Lapatinib + Palbociclib; first compound 2 µM
  relative viability: 0.616
Lapatinib + Linsitinib; first compound 0.06325 µM
  relative viability: 1.01
Lapatinib + Linsitinib; first compound 0.2 µM
  relative viability: 1.03
Lapatinib + Linsitinib; first compound 0.6325 µM
  relative viability: 1.03
Lapatinib + Linsitinib; first compound 2 µM
  relative viability: 1.01

## NCI-H1437
Wnt-C59 + OSI-027; first compound 0.001 µM
  relative viability: 0.859
Wnt-C59 + OSI-027; first compound 0.01 µM
  relative viability: 0.927
Wnt-C59 + OSI-027; first compound 0.03162 µM
  relative viability: 0.859
Wnt-C59 + OSI-027; first compound 0.1 µM
  relative viability: 0.911
Wnt-C59 + Linsitinib; first compound 0.001 µM
  relative viability: 1.01
Wnt-C59 + Linsitinib; first compound 0.01 µM
  relative viability: 1.01
Wnt-C59 + Linsitinib; first compound 0.03162 µM
  relative viability: 1.04
Wnt-C59 + Linsitinib; first compound 0.1 µM
  relative viability: 1.01
Lapatinib + Palbociclib; first compound 0.02 µM
  relative viability: 0.281
Lapatinib + Palbociclib; first compound 0.06325 µM
  relative viability: 0.297
Lapatinib + Palbociclib; first compound 0.2 µM
  relative viability: 0.305
Lapatinib + Palbociclib; first compound 0.6325 µM
  relative viability: 0.322
Lapatinib + Palbociclib; first compound 2 µM
  relative viability: 0.294
Lapatinib + Linsitinib; first compound 0.02 µM
  relative viability: 0.898
Lapatinib + Linsitinib; first compound 0.06325 µM
  relative viability: 0.968
Lapatinib + Linsitinib; first compound 0.2 µM
  relative viability: 1.05
Lapatinib + Linsitinib; first compound 0.6325 µM
  relative viability: 0.864
Lapatinib + Linsitinib; first compound 2 µM
  relative viability: 0.875

## NCI-H1651
Wnt-C59 + OSI-027; first compound 0.001 µM
  relative viability: 0.767
Wnt-C59 + OSI-027; first compound 0.01 µM
  relative viability: 0.646
Wnt-C59 + OSI-027; first compound 0.03162 µM
  relative viability: 0.696
Wnt-C59 + OSI-027; first compound 0.1 µM
  relative viability: 0.709
Wnt-C59 + Linsitinib; first compound 0.001 µM
  relative viability: 1
Wnt-C59 + Linsitinib; first compound 0.01 µM
  relative viability: 0.9
Wnt-C59 + Linsitinib; first compound 0.03162 µM
  relative viability: 1.02
Wnt-C59 + Linsitinib; first compound 0.1 µM
  relative viability: 0.852
Lapatinib + Palbociclib; first compound 0.02 µM
  relative viability: 0.547
Lapatinib + Palbociclib; first compound 0.06325 µM
  relative viability: 0.456
Lapatinib + Palbociclib; first compound 0.2 µM
  relative viability: 0.483
Lapatinib + Palbociclib; first compound 0.6325 µM
  relative viability: 0.478
Lapatinib + Palbociclib; first compound 2 µM
  relative viability: 0.514
Lapatinib + Linsitinib; first compound 0.02 µM
  relative viability: 0.946
Lapatinib + Linsitinib; first compound 0.06325 µM
  relative viability: 0.884
Lapatinib + Linsitinib; first compound 0.2 µM
  relative viability: 0.922
Lapatinib + Linsitinib; first compound 0.6325 µM
  relative viability: 0.846
Lapatinib + Linsitinib; first compound 2 µM
  relative viability: 0.9

## NCI-H1666
Wnt-C59 + OSI-027; first compound 0.001 µM
  relative viability: 0.825
Wnt-C59 + OSI-027; first compound 0.01 µM
  relative viability: 0.849
Wnt-C59 + OSI-027; first compound 0.03162 µM
  relative viability: 0.873
Wnt-C59 + OSI-027; first compound 0.1 µM
  relative viability: 0.876
Wnt-C59 + Linsitinib; first compound 0.001 µM
  relative viability: 0.941
Wnt-C59 + Linsitinib; first compound 0.01 µM
  relative viability: 0.682
Wnt-C59 + Linsitinib; first compound 0.03162 µM
  relative viability: 0.885
Wnt-C59 + Linsitinib; first compound 0.1 µM
  relative viability: 0.874
Lapatinib + Palbociclib; first compound 0.02 µM
  relative viability: 0.63
Lapatinib + Palbociclib; first compound 0.06325 µM
  relative viability: 0.632
Lapatinib + Palbociclib; first compound 0.2 µM
  relative viability: 0.674
Lapatinib + Palbociclib; first compound 0.6325 µM
  relative viability: 0.65
Lapatinib + Palbociclib; first compound 2 µM
  relative viability: 0.633
Lapatinib + Linsitinib; first compound 0.02 µM
  relative viability: 0.822
Lapatinib + Linsitinib; first compound 0.06325 µM
  relative viability: 0.681
Lapatinib + Linsitinib; first compound 0.2 µM
  relative viability: 0.704
Lapatinib + Linsitinib; first compound 0.6325 µM
  relative viability: 0.611
Lapatinib + Linsitinib; first compound 2 µM
  relative viability: 0.248

## NCI-H1734
Wnt-C59 + OSI-027; first compound 0.001 µM
  relative viability: 0.622
Wnt-C59 + OSI-027; first compound 0.01 µM
  relative viability: 0.518
Wnt-C59 + OSI-027; first compound 0.03162 µM
  relative viability: 0.596
Wnt-C59 + OSI-027; first compound 0.1 µM
  relative viability: 0.3
Wnt-C59 + Linsitinib; first compound 0.001 µM
  relative viability: 0.858
Wnt-C59 + Linsitinib; first compound 0.01 µM
  relative viability: 0.779
Wnt-C59 + Linsitinib; first compound 0.03162 µM
  relative viability: 0.916
Wnt-C59 + Linsitinib; first compound 0.1 µM
  relative viability: 0.911
Lapatinib + Palbociclib; first compound 0.06325 µM
  relative viability: 0.271
Lapatinib + Palbociclib; first compound 0.2 µM
  relative viability: 0.31
Lapatinib + Palbociclib; first compound 0.6325 µM
  relative viability: 0.332
Lapatinib + Palbociclib; first compound 2 µM
  relative viability: 0.303
Lapatinib + Linsitinib; first compound 0.06325 µM
  relative viability: 0.729
Lapatinib + Linsitinib; first compound 0.2 µM
  relative viability: 0.946
Lapatinib + Linsitinib; first compound 0.6325 µM
  relative viability: 0.858
Lapatinib + Linsitinib; first compound 2 µM
  relative viability: 0.745

## NCI-H1755
Wnt-C59 + OSI-027; first compound 0.001 µM
  relative viability: 0.8
Wnt-C59 + OSI-027; first compound 0.01 µM
  relative viability: 0.72
Wnt-C59 + OSI-027; first compound 0.03162 µM
  relative viability: 0.644
Wnt-C59 + OSI-027; first compound 0.1 µM
  relative viability: 0.663
Wnt-C59 + Linsitinib; first compound 0.001 µM
  relative viability: 0.979
Wnt-C59 + Linsitinib; first compound 0.01 µM
  relative viability: 0.954
Wnt-C59 + Linsitinib; first compound 0.03162 µM
  relative viability: 0.983
Wnt-C59 + Linsitinib; first compound 0.1 µM
  relative viability: 0.984
Lapatinib + Palbociclib; first compound 0.02 µM
  relative viability: 0.475
Lapatinib + Palbociclib; first compound 0.06325 µM
  relative viability: 0.463
Lapatinib + Palbociclib; first compound 0.2 µM
  relative viability: 0.423
Lapatinib + Palbociclib; first compound 0.6325 µM
  relative viability: 0.417
Lapatinib + Palbociclib; first compound 2 µM
  relative viability: 0.48
Lapatinib + Linsitinib; first compound 0.02 µM
  relative viability: 0.983
Lapatinib + Linsitinib; first compound 0.06325 µM
  relative viability: 0.963
Lapatinib + Linsitinib; first compound 0.2 µM
  relative viability: 0.982
Lapatinib + Linsitinib; first compound 0.6325 µM
  relative viability: 0.95
Lapatinib + Linsitinib; first compound 2 µM
  relative viability: 0.714
